Values quoted from earlier work, collected in patent publication US20160151380A1, “THERAPIES FOR DISEASES CAUSED BY ARTHROPOD-BORNE PARASITES” (THE REGENTS OF THE UNIVERSITY OF CALIFORNIA, priority 2013, published 2016).

Target: T1, PKCepsilon (Homo sapiens, UniProt Q02156)
T1 sequence (Q02156 1-737): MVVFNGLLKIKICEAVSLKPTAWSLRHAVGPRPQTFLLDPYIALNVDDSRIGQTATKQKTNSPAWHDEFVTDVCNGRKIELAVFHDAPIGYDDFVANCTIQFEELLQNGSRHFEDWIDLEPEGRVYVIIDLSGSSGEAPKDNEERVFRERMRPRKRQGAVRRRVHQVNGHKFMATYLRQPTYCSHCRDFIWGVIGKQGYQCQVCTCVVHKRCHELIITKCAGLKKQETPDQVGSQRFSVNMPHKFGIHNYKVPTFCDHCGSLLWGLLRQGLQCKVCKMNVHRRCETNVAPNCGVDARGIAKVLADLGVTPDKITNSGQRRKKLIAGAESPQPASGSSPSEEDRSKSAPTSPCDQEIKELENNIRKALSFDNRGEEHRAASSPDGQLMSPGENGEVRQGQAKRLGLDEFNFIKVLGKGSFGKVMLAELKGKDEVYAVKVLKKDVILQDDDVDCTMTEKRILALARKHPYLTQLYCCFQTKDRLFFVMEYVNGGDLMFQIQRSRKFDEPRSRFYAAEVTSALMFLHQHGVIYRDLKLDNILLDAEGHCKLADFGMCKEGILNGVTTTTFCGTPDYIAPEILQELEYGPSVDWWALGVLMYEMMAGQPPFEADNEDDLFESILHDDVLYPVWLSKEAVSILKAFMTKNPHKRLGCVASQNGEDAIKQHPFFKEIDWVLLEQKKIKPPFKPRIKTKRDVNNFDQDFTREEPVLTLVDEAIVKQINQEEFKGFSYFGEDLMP
Details: PKCepsilon; cited from earlier work

Molecule | IC50 | Kd
CN(C)CCCn1cc(C2=C(c3c[nH]c4ccccc34)C(=O)NC2=O)c2ccccc21 [Bisindolylmaleimide I] | < 25 nM | 
Cdk1/2 Inhibitor III | > 50 nM | 
O=C(OC1CCCC1Cc1ccc(O)cc1)c1cc(O)c(C(=O)c2c(O)cccc2C(=O)O)c(O)c1 (stereo not shown) [CHEMBL295806] | 120 nM | 
O=C1NC(=O)c2c1c1c3ccccc3[nH]c1c1[nH]c3ccccc3c21 [Arcyriaflavin A] | 310 nM | 
Cc1cncc2cccc(S(=O)(=O)N3CCCN(C(=O)CN)C[C@@H]3C)c12 [H-1152; Glycyl] | 500 nM | 
CC1CCCN(CCOCCOc2ccc(Cl)cc2C(C)(C)C)C1 (stereo not shown) [SureCN2934911] | 36 nM | 
O=C1Nc2ccc3ncsc3c2/C1=C/c1cnc[nH]1 [PKR Inhibitor] | > 150 nM | 
Nc1ncnc2c1c(-c1cnc3[nH]ccc3c1)nn2C1CCCC1 [PP121] | < 750 nM | 
CC(C)(C)c1nc2c3cc[nH]c(=O)c3c3cc(F)ccc3c2[nH]1 [BCP9000906] | 500 nM | 
Cn1cc(C2=C(c3cn(CCCSC(=N)N)c4ccccc34)C(=O)NC2=O)c2ccccc21 [Ro-31-8220, methanesulfonic acid; 3-[3-[4-(1-methylindol-3-yl)-2,5-dioxopyrrol-3-yl]indol-1-yl]propyl carbamimidothioate] | 10 nM | 
O=C1NC(=O)c2c1c1c3ccccc3n3c1c1c2c2ccccc2n1C1CCC3O1 [SB218078] | > 150 nM | 
C#Cc1cccc(Nc2ncnc3cc4c(cc23)OCCOCCOCCO4)c1 [Icotinib] | > 1000 nM | 
O=C1NC(=O)C(c2c[nH]c3ccccc23)=C1c1c[nH]c2ccccc12 [Bisindolylmaleimide IV, 3,4-bis(1H-indol-3-yl)pyrrole-2,5-dione] | 190 nM | 
CCOC(=O)C(NC(=O)CCC(=O)OCC(=O)C1(O)CCC2C3CCC4=CC(=O)CCC4(C)C3C(O)CC21C)C(O)c1ccccc1 (stereo not shown) [SureCN3774124] | 330 nM | 
CCN1CCOCCn2cc(c3ccccc32)C2=C(C(=O)NC2=O)c2cn(c3ccccc23)CCOCC1 [CHEMBL103055] | 75 nM | 
N=C(N)SCCCn1c(-c2cc3ccccc3s2)c(C2=CC(=O)NC2=O)c2ccccc21 [CHEMBL350335] | 10 nM | 
O=C1NC(=O)C(c2cn(CCCn3ccnc3)c3ccccc23)=C1Nc1ccccc1 [PKCb Inhibitor, 3-anilino-4-[1-(3-imidazol-1-ylpropyl)indol-3-yl]pyrrole-2,5-dione] | > 50 nM | 
COc1cccc(Nc2ncnn3ccc(CN4CC[C@@H](N)[C@H](O)C4)c23)c1 [BMS-690514] |  | < 400 nM
COc1ccc2c(c1)c(C1=C(c3c[nH]c4ccccc34)C(=O)NC1=O)cn2CCCN(C)C [Go6983, 3-[1-[3-(dimethylamino)propyl]-5-methoxyindol-3-yl]-4-(1H-indol-3-yl)pyrrole-2,5-dione] | > 150 nM | 
COc1c(Br)cc(Br)cc1/C=N\Nc1nc(NCc2ccccc2)nc(N2CCOCC2)n1 [SureCN5757856] | 140 nM | 
CCc1cccc(OCCOCCN2CC(C)OC(C)C2)c1 (stereo not shown) [SureCN2934634] | 1.6 nM | 
C[C@@H](OC(=O)c1ccc2c(c1)OCCO2)C(=O)Nc1ccc(Cl)cc1Cl [SureCN2579964] | < 750 nM | 
Cc1c(Nc2c(C#N)cncc2/C=C/CCN2CCC[C@@H](N)C2)ccc2[nH]ccc12 [CHEMBL606245] | 14 nM | 

Same assay, conditions: cited from earlier work

Molecule | Ki
CC(C)[C@H]1C(=O)N[C@H](CO)Cc2c[nH]c3cccc(c23)N1C [Indolactam V] | 7.7 nM

Target: MAPK14 p38 (Homo sapiens, UniProt Q16539)
Details: cited from earlier work

MAPK14 p38, sequence (Q16539 whole entry): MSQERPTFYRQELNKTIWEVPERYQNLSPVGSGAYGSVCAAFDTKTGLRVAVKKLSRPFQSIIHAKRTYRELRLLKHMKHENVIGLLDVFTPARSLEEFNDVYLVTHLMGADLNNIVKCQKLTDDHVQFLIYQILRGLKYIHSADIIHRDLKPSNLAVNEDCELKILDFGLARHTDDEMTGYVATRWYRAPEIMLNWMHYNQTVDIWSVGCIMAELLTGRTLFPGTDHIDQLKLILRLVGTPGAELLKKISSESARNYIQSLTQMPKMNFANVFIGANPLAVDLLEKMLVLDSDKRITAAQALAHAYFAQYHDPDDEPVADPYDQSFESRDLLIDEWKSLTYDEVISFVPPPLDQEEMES

Molecule | IC50 | Ki | Kd
CN(C)c1ccc(C(=N)c2ccc(N(C)C)cc2)cc1 [SureCN3936664] | 5 nM |  | 
O=C(COC(=O)C1COc2ccccc2O1)Nc1cc(C(F)(F)F)ccc1N1CCOCC1 (stereo not shown) [SureCN4875304] | 540 nM |  | 
NC(N)=NC(=O)Cc1c(Cl)cccc1Cl [Kinome_3519] |  | 0.2 nM | 
Cc1ccc(NC(=O)c2cccc(N3CCCCC3)c2)cc1-c1ccc(C(=O)NCC2CC2)cc1 [CHEMBL1964275] |  |  | < 10 nM
Oc1cccc2cccnc12 [SPDD01923] | 0.11 nM |  | 
Cc1cc(F)ccc1-c1nc(NC(CO)CO)nc2c1ccc(=O)n2-c1c(F)cccc1F [SB681323] | < 100 nM |  | 
c1ccc(-c2[nH]ncc2-c2ccnc3ccccc23)nc1 [LY364947] | 740 nM |  | 
CC(C)c1nnc2ccc(-c3ocnc3-c3ccc(F)cc3Cl)cn12 [CHEMBL215652] | 2.5 nM |  | 
Cc1ccc(-n2nc(C(C)(C)C)cc2NC(=O)Nc2cccc3ccccc23)cc1 [CHEMBL420047] |  |  | 1 nM
CCNc1nnc2ccc(-c3ocnc3-c3ccc(F)cc3)cn12 [CHEMBL213451] | 7.6 nM |  | 
Cc1cccc(-c2nn(C(=S)Nc3ccccc3)cc2-c2ccnc3ccccc23)n1 [A-83-01] | 100 nM |  | 
CCC(C)C(C(=O)O)N1C(=O)C(=Cc2c(F)cccc2Cl)SC1=S (stereo not shown) [SureCN4762364] | 3.2 nM |  | 
CCCCCCCCCCCCCC(=NO)c1cc(OC)ccc1O [SureCN4219451] | 1.8 nM |  | 
CC1=C2N=C(C=C3NC(=Cc4[nH]c(c(CCC(=O)O)c4CC(=O)O)Cc4[nH]c1c(CC(=O)O)c4CCC(=O)O)C(CCC(=O)O)C3(C)CC(=O)O)C(CCC(=O)O)C2(C)CC(=O)O (stereo not shown) [BX517] | > 900 nM |  | 
Cc1ccc(NC(=O)c2cccc(N(C)C)c2)cc1NC(=O)c1ccc(O)cc1 [ZM336372] | 180 nM |  | 
COc1cc2ncnc(Nc3cccc(Cl)c3)c2cc1OC [AG1478] | 560 nM |  | 
Cc1ccc(C(=O)Nc2cccc(C(F)(F)F)c2)cc1-c1ccc2nc(N)ncc2c1 [2ofv] | 6 nM |  | 
Cc1ccc(C(=O)Nc2ccon2)cc1Nc1ncnc(NC2CCCC2)c1C#N [CHEMBL383172] |  | 1.6 nM | 
CNC(=O)c1cc(Oc2ccc(NC(=O)Nc3ccc(Cl)c(C(F)(F)F)c3)c(F)c2)ccn1 [Regorafenib] | < 100 nM |  | 
COc1ccc2c(Oc3ccc(NC(=O)c4c(C)n(CC(C)(C)O)n(-c5ccccc5)c4=O)nc3)ccnc2c1 [SureCN5495613] | 9 nM |  | 

Target: JNK3 (Homo sapiens, UniProt P53779)
Details: cited from earlier work

JNK3, sequence (P53779 whole entry, species assumed): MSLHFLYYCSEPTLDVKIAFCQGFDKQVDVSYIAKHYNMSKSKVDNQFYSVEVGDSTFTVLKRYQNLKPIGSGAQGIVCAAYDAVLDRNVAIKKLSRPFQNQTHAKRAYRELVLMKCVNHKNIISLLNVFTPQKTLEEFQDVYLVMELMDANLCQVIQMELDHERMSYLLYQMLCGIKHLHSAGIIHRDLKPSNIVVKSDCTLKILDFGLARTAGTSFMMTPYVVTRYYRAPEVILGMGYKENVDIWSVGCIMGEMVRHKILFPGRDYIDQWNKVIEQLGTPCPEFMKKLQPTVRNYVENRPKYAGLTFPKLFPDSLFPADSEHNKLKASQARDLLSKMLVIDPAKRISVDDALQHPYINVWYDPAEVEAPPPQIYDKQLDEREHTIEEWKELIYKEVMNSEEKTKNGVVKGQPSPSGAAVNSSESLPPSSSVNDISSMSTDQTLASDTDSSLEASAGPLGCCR

Molecule | Ki | IC50 | Kd
CCCC(=O)NC1=NC2C(N=CN2C2OC3OP(=O)(O)OC3C2OC(=O)CCC)C(=O)N1 (stereo not shown) [Kinome_3027] | 18 nM |  | 
CNC(=O)[C@@]1(N)C[C@H]2O[C@]1(C)n1c3ccccc3c3c4c(c5c6ccccc6n2c5c31)C(=O)NC4 [TTT-3002] |  | < 60 nM | 
Cn1c2ccccc2c2c3c(c4c5ccccc5n(CCC#N)c4c21)CNC3=O [Go6976, 5,6,7,13-Tetrahydro-13-methyl-5-oxo-12H-indolo[2,3-a]pyrrolo[3,4-c]carbazole-12-propa-nenitrile] |  | > 300 nM | 
COc1cc(N2CCOCC2)ccc1Nc1ncc(F)c(Nc2ccccc2NS(C)(=O)=O)n1 [CZC-25146] |  | < 600 nM | 
CCS(=O)(=O)Nc1ccc2c(c1)/C(=C(/Nc1ccc(CN3CCCCC3)cc1)c1ccccc1)C(=O)N2 [Hesperadin] |  |  | < 10 nM
O=C1NCc2c1c1c3ccccc3[nH]c1c1[nH]c3ccccc3c21 [Staurosporine aglycone] |  | < 100 nM | 
COc1ccc(-c2cc3nccn3c(Nc3ncccc3C(N)=O)n2)cc1OC [Syk Inhibitor IV] |  | < 400 nM | 
CN(C)C[C@@H]1CCn2cc(c3ccccc32)C2=C(C(=O)NC2=O)c2cn(c3ccccc23)CCO1 [Ruboxistaurin] |  | > 900 nM | 
CN1CCC(CNc2ccc3ncc(-c4cccc(OC(F)(F)F)c4)n3n2)CC1 [SGI-1776] |  | > 1000 nM | 
O=C(O)c1ccc(-c2c[nH]c3ncc(-c4ccccc4)cc23)cc1C1CCCC1 [GSK650394A] |  | > 600 nM | 
O=C1c2ccccc2-c2nc3nnnn3nc21 [PDK1/Akt/Flt Inhibitor] |  | 500 nM | 

Target: JNK1 (Homo sapiens, UniProt P45983)
Details: cited from earlier work

JNK1, sequence (P45983 whole entry, species assumed): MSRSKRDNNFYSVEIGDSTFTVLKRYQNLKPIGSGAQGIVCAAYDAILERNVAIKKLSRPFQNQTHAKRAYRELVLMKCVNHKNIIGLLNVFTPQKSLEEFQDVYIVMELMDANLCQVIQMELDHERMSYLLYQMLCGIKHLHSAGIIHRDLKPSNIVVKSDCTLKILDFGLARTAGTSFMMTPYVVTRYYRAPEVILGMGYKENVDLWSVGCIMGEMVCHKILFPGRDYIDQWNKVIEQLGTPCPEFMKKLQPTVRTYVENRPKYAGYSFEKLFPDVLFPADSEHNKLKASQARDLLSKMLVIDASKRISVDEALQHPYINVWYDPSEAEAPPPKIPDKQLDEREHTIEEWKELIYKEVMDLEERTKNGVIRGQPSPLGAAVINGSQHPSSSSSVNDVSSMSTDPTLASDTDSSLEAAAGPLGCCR

Molecule | Ki | IC50 | Kd
CCCC(=O)NC1=NC2C(N=CN2C2OC3OP(=O)(O)OC3C2OC(=O)CCC)C(=O)N1 (stereo not shown) [Kinome_3027] | 1 nM |  | 
CCS(=O)(=O)N1CC(CC#N)(n2cc(-c3ncnc4[nH]ccc34)cn2)C1 [Baricitinib] |  | > 1000 nM | 
CNC(=O)[C@@]1(N)C[C@H]2O[C@]1(C)n1c3ccccc3c3c4c(c5c6ccccc6n2c5c31)C(=O)NC4 [TTT-3002] |  | < 40 nM | 
O=C(c1ccc(Nc2nccc(-c3cc4ccccc4s3)n2)cc1)N1CCC(N2CCCC2)CC1 [K00596a] |  | 100 nM | 
COc1cc(N2CCOCC2)ccc1Nc1ncc(F)c(Nc2ccccc2NS(C)(=O)=O)n1 [CZC-25146] |  | < 600 nM | 
COCCOc1ccc2c(c1)ncn2-c1ccc2cccc(N3CCC(N)CC3)c2n1 [CP673451] |  | > 1000 nM | 
CCS(=O)(=O)Nc1ccc2c(c1)/C(=C(/Nc1ccc(CN3CCCCC3)cc1)c1ccccc1)C(=O)N2 [Hesperadin] |  |  | < 10 nM
O=C1NCc2c1c1c3ccccc3[nH]c1c1[nH]c3ccccc3c21 [Staurosporine aglycone] |  | < 100 nM | 
CC(C)(C)n1nc(Cc2cccc3ccccc23)c2c(N)ncnc21 [PP1 Analog II; 1NM-PP1] |  | 140 nM | 
CCCCCCOC(=O)[C@]1(O)C[C@@H]2O[C@@]1(C)n1c3ccccc3c3c4c(c5c6ccccc6n2c5c31)C(=O)NC4 [KT5720] |  | < 800 nM | 
BrCBr [Kinome_3024] | 3 nM |  | 
CC1=C2N=C(C=C3NC(=Cc4[nH]c(c(CCC(=O)O)c4CC(=O)O)Cc4[nH]c1c(CC(=O)O)c4CCC(=O)O)C(CCC(=O)O)C3(C)CC(=O)O)C(CCC(=O)O)C2(C)CC(=O)O (stereo not shown) [BX517] |  | > 900 nM | 
N#CC(c1ccnc(NCCc2cccnc2)n1)c1nc2ccccc2s1 (stereo not shown) [AS601245] |  | 150 nM | 
CN1CC=C(c2c[nH]c3ccc(-c4cccs4)cc23)CC1 [SureCN10063060] | > 1000 nM |  | 
CCN(CC)C(=O)c1ccc(Nc2nc(OCC3CCCCC3)c3[nH]cnc3n2)cc1 [NU6140] |  | 500 nM | 
N#C/C(=C1/Nc2ccccc2S1)c1ccnc(NCCc2cccnc2)n1 [CHEMBL1788116] |  | 150 nM | 
NC(=O)Nc1sc(-c2ccc(F)cc2)cc1C(N)=O [IKK-2 Inhibitor IV] |  |  | < 1250 nM
CCCC(=O)NC1=NC2C(N=CN2C2OC3OP(=O)(O)OC3C2OC(=O)CCC)C(=O)N1 (stereo not shown) [Kinome_3028] | 3 nM |  | 
